The values that follow come from patent publication US12029727B2, “Combinations and methods for the treatment of neuropathic pain” (priority 2016, dated 2024).

Series [1] has as its system neuropathic pain model induced by L5/L6 spinal nerve ligation (tactile allodynia). To be noted: rat, in vivo, po.
Experimental: Antineuropathic effect of a combination of pregabalin and alpha lipoic acid through the neuropathic pain model induced by L5/L6 spinal nerve ligation in rat was determined.
Wistar female rats with a body weight of 120-140 g were used for all experiments. Animals were kept under temperature controlled conditions (22° C.) and water and food were given ad-libitum in experimentation rooms.
Both pregabalin and alpha lipoic acid were suspended in a 0.5% carboxymethylcellulose isotonic saline solution. Individual drugs or in combination were prepared and administered just before starting the experiment.
Rats were prepared according to the method described by Kim S H, Chung J M. 1992. […]
Tactile allodynia was determined according to the previously described method by Chaplan S R, Bach F W, Pogrel J W, Chung J M, Yaksh T L. 1994. […] Paw withdrawal mechanical threshold was measured immediately after and a systemic administration of drugs was carried out. Later, paw withdrawal mechanical threshold was measured at 0.5, 1, 2, 3, 4, 5, 6, 7 and 8 hours. […]
Graphs of 50% withdrawal threshold in grams (g) in function of time (minutes) were prepared from data obtained. Area under curve was determined from these graphs through trapezoidal method and % of maximum possible effect (% MEP) was calculated using the following formula: % MEP=(Drug AUC−Neuropathic AUC)/(Sham AUC−Neuropathic AUC)×100 […]
Series [2] in a line: Safety/tolerability observations in treated rats. To be noted: 30 mg/Kg dose.
Experimental: Wistar female rats with a body weight of 120-140 g were used for all experiments. Animals were kept under temperature controlled conditions (22° C.) and water and food were given ad-libitum in experimentation rooms. Experiments were carried out according to the guidelines on ethical issues on experimental pain research in animals (Zimmermann M. 1983. Ethical guidelines for investigations of experimental pain in conscious animals. Pain. 16:109-110).

Regarding `O=C(O)CCCCC1CCSS1` (stereo not drawn) [alpha lipoic acid], the 50% effect level in series [1] (ED50) was put at a dose of 57.5 ± 5.59 mg/kg. With `CC(C)C[C@H](CN)CC(=O)O` [pregabalin], the adverse signs observed result in series [2] is “sedation and motor discoordination”. Besides, in series [1], the ED50 (commonly the dose that gives a 50% effect, or the effect in half of the subjects) is 2.45 ± 0.23 mg/kg.
